Reference: ChEMBL document CHEMBL5465560, “Selectivity Literature for EUbOPEN Chemogenomic Library” (2024)
Values belong to the compound of their own block, whether it stands above or below them.

Columns and labels:
[1] = molecular target: T1, Serine/threonine-protein kinase Nek1 (Homo sapiens) (UniProt Q96PY6); assay: Selectivity interaction (ActivX KiNativ screen (kinase selectivity in THP-1 cell lysates)) EUB0000639a NEK1; format: subcellular; details: lysate
T1 sequence (whole entry): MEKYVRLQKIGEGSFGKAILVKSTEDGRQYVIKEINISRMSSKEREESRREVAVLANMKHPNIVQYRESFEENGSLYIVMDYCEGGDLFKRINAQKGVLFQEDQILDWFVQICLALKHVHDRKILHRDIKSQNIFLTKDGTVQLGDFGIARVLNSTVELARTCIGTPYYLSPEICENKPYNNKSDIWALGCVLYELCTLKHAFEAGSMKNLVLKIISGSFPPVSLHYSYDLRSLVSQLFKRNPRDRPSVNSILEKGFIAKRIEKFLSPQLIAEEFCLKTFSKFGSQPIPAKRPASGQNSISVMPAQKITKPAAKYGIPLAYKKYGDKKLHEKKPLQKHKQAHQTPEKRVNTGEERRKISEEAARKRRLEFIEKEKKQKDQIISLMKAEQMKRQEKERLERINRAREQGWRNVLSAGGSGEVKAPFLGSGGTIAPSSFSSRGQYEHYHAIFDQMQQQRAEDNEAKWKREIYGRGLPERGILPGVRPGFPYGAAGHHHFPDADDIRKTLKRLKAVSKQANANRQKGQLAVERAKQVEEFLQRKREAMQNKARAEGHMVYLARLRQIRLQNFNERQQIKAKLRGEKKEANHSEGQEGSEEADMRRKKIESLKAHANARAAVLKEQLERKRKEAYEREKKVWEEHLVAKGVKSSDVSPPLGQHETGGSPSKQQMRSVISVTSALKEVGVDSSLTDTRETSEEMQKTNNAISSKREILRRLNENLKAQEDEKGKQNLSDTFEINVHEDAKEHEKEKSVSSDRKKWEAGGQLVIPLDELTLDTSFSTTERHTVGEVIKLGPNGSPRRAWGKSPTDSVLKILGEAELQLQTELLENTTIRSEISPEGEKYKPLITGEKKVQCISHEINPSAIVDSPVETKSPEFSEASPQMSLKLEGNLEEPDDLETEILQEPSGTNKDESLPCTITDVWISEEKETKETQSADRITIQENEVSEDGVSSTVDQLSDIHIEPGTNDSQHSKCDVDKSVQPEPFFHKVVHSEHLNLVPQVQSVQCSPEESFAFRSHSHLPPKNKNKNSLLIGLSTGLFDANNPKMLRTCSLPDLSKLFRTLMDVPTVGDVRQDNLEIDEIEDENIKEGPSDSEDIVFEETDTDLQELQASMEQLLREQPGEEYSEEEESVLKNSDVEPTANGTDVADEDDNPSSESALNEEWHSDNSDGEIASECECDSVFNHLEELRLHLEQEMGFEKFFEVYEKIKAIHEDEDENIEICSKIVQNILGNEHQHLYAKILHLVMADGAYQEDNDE

[2] = molecular target: T2, Protein kinase C iota type (Homo sapiens) (UniProt P41743); assay: Selectivity interaction (ActivX KiNativ screen (kinase selectivity in THP-1 cell lysates)) EUB0000639a PRKCI; format: subcellular; details: lysate
T2 sequence (whole entry): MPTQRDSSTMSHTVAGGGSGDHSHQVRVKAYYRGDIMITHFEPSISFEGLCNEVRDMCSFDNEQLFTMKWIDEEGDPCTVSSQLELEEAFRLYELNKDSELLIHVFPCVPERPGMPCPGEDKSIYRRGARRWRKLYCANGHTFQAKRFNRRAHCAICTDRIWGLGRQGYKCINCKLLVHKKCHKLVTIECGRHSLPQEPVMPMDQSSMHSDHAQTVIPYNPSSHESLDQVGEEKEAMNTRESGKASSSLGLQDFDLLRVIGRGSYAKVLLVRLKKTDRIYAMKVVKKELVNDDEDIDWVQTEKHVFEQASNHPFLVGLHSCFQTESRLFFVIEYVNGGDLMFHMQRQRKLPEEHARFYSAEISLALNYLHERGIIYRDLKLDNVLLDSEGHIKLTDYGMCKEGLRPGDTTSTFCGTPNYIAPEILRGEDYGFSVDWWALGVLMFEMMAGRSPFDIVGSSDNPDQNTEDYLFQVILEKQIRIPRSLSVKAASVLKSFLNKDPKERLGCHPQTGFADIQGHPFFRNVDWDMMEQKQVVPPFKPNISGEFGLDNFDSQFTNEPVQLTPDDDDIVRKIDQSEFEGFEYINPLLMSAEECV

[3] = molecular target: Homeodomain-interacting protein kinase 2 (Homo sapiens, UniProt Q9H2X6); assay: Selectivity interaction (Kinase panel (Z-LYTE Assay)) EUB0001632a HIPK2; details: at 10 µM
[4] = molecular target: Non-receptor tyrosine-protein kinase TYK2 (Homo sapiens, UniProt P29597); assay: Selectivity interaction (KinomeScan (DiscoverX)) EUB0000695a TYK2; details: at 100 nM
[5] = molecular target: LIM domain kinase 2 (Homo sapiens) (UniProt P53671); assay: Selectivity interaction (KinomeScan (DiscoverX)) EUB0000229b LIMK2; details: at 10 µM
[6] = molecular target: T3, Dual specificity tyrosine-phosphorylation-regulated kinase 2 (Homo sapiens) (UniProt Q92630); assay: Selectivity interaction (KinomeScan (DiscoverX)) EUB0000045b DYRK2
T3 sequence (whole entry): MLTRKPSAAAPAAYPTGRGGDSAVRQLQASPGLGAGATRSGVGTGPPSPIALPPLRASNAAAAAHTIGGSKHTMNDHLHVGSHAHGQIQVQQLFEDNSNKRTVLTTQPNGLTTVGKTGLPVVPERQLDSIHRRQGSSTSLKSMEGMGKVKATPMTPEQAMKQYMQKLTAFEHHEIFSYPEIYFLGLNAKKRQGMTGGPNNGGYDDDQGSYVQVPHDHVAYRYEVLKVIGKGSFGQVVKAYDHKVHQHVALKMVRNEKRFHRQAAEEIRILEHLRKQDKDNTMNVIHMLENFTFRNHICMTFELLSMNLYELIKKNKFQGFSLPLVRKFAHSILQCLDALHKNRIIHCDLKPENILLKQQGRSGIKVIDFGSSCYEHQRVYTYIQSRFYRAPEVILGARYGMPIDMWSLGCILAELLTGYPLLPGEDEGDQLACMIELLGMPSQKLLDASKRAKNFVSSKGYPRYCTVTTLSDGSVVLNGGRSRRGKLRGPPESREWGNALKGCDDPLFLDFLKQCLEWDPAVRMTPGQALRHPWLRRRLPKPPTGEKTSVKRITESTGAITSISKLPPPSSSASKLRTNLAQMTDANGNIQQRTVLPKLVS

[7] = molecular target: Fibroblast growth factor receptor 1 (Homo sapiens, UniProt P11362); assay: Selectivity interaction (KinomeScan (DiscoverX)) EUB0001619a FGFR1; details: at 1 µM
Fibroblast growth factor receptor 1, sequence (P11362 22-822 limits assumed): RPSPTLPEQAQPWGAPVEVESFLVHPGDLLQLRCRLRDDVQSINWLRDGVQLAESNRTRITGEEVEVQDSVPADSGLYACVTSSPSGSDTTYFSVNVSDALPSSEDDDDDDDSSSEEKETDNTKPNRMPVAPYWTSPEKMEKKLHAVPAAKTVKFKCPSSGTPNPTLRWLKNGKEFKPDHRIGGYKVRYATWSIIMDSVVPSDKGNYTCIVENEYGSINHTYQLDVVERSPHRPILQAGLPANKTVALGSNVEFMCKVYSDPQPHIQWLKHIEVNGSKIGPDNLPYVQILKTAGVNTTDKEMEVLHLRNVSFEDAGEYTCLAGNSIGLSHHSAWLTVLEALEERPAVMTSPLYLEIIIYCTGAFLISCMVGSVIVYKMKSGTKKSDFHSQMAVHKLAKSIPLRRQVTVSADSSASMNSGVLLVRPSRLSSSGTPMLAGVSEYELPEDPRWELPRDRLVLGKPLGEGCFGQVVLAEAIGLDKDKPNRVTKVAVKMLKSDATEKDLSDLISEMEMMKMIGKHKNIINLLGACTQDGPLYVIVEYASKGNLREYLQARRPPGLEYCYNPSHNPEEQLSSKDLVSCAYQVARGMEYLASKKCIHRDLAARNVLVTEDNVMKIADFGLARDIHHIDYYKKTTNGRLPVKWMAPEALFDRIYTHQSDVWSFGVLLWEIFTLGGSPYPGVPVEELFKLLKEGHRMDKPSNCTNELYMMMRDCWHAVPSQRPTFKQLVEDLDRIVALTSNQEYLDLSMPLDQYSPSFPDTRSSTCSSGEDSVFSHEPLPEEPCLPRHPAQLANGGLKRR

Non-receptor tyrosine-protein kinase TYK2, sequence (P29597 whole entry, the tested form may be a part): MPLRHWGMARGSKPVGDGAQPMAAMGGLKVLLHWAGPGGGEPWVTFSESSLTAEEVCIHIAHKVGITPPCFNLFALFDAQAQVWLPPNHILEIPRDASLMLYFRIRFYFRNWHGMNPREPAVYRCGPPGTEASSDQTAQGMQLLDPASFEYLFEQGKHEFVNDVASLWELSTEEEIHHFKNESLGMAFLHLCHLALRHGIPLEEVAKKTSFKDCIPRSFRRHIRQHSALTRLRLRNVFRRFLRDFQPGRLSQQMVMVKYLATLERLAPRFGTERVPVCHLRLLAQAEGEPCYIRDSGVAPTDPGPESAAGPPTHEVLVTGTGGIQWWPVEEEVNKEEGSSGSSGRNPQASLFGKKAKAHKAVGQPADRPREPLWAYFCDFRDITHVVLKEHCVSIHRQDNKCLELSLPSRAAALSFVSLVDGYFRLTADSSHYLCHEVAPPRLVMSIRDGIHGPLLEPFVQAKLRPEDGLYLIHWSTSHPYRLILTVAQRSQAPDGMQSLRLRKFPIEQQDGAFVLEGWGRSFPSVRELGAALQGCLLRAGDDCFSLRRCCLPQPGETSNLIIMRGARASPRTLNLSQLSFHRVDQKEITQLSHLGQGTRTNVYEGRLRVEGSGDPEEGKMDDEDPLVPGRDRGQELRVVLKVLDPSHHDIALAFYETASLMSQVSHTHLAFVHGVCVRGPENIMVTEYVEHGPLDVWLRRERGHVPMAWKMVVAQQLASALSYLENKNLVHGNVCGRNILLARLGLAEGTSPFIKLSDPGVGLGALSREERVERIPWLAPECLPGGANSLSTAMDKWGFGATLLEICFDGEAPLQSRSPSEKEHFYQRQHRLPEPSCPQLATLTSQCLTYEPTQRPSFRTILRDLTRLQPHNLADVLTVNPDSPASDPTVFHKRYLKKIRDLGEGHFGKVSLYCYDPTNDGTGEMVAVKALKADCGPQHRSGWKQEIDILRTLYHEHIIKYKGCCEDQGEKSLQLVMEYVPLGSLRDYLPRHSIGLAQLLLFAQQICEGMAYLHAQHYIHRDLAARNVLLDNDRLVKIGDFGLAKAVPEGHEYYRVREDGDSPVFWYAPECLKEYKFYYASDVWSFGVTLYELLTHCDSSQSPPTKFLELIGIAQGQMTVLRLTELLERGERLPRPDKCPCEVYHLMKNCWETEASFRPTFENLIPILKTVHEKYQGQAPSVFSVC
LIM domain kinase 2 (Homo sapiens), sequence (P53671 whole entry, looked up, the tested form may be a part): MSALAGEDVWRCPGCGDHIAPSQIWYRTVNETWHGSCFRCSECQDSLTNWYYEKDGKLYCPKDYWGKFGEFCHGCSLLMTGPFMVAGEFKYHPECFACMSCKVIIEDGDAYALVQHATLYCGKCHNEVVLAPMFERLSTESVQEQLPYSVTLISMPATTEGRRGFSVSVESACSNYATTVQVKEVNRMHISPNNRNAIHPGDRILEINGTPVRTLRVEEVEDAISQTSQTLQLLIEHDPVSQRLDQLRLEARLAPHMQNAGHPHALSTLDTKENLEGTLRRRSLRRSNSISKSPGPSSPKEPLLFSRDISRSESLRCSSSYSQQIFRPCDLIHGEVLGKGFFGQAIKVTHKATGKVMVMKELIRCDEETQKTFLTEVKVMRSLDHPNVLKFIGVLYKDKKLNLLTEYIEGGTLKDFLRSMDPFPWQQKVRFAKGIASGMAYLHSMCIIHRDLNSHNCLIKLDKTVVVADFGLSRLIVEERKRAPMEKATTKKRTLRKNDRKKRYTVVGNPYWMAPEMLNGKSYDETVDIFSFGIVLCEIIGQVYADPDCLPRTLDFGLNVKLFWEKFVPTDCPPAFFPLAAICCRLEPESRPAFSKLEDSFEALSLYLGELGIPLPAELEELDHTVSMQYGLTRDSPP
Homeodomain-interacting protein kinase 2, sequence (Q9H2X6 whole entry, looked up): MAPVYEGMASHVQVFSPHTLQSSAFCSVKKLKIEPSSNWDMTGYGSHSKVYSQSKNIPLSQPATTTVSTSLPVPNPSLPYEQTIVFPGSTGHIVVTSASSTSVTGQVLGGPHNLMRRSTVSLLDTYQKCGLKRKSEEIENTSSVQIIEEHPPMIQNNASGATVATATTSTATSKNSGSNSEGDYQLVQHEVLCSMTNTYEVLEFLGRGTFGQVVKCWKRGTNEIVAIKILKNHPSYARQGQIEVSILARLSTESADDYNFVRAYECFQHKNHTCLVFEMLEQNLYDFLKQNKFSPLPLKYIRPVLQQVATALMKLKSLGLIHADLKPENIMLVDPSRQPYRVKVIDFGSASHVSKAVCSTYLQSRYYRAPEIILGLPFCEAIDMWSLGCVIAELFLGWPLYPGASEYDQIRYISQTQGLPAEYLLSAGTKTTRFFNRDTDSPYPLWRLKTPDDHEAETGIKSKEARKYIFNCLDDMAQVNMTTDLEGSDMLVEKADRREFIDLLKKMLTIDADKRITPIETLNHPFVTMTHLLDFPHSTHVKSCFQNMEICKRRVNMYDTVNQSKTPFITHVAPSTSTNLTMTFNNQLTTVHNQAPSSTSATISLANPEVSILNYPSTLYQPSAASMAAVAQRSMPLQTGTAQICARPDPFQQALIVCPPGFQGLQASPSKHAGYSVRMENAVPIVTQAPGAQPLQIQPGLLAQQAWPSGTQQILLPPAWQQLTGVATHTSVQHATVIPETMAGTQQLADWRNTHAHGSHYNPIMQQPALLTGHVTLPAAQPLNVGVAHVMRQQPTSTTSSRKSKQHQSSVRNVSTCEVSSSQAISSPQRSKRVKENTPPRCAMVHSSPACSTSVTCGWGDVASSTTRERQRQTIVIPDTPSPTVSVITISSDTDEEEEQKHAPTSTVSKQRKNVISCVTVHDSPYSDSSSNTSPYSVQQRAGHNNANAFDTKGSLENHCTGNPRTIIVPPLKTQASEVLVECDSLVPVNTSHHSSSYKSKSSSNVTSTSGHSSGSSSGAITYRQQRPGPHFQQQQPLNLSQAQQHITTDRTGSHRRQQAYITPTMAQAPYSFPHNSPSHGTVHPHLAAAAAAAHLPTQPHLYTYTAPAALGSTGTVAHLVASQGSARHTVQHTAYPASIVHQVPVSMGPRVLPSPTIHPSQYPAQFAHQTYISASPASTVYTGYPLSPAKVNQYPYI

% of inhibition ([1]; at 0.01 µM): -0.6% | % of inhibition ([1]; at 0.04 µM): 7% | % of inhibition ([1]; at 0.2 µM): 14.4% | % of inhibition ([1]; at 1 µM): 4.9% | % of inhibition ([1]; at 5 µM): -6.3% | % of inhibition ([2]; at 0.01 µM): 8.5% | % of inhibition ([2]; at 0.04 µM): -2.3% | % of inhibition ([2]; at 0.2 µM): -7.6% | % of inhibition ([2]; at 1 µM): 6.9% | % of inhibition ([2]; at 5 µM): -26.2%
Compound: CC[C@@H]1[C@H](F)C(=O)N[C@@H]1COc1nccc2cc(C(N)=O)c(OC)cc12 [ZIMLOVISERTIB]

% of control [3]: 5.72%
Compound: Cn1cc(-n2cnc3c(NCc4nc5cc(Cl)c(Cl)cc5[nH]4)nc(N4CCOCC4)nc32)cn1

Compound: Cc1cc(F)c(C(=O)Nc2cccc(-c3nncn3C(C)C)n2)cc1-n1cnc(C2CC2)c1
% of control [4]: 81%

Compound: COc1cc(N(C)c2ccnc3ccc(C(F)(F)F)cc23)cc(OC)c1OC
% binding [5]: 93%

Compound: C=CC(=O)Nc1cc(-n2c(=O)ccc3cnc4ccc(-c5ccc(NS(C)(=O)=O)cc5)cc4c32)ccc1C
% of control ([6]; at 1 µM): 100% | % of control ([6]; at 10 µM): 91%

Compound: N#Cc1cccc(-c2c[nH]c3ncnc(N4CCOCC4)c23)c1
% of control [7]: 100%
